Assay [1] relates to hippocampal THP levels. Kind of assay: Radioimmunoassay of hippocampal 3α,5α-THP levels. The note with it: administration of 5α-reductase blocker. It counts as in vivo, mouse. The text has this:
Animal subjects. Prepubertal and pubertal female C57BL6 mice (3½-6 weeks old, +/+ and δ^−/−1) were housed in a reverse light:dark cycle (12:12). Both sets of mice were originally supplied by G. Homanics (Univ. of Pittsburgh), and were bred on site, with +/+ mice supplemented from Jackson Laboratories (Bar Harbor, Me.). Initially, age-matched+/+littermates of the δ^−/−were used as controls, but because they were indistinguishable from C57BL6, data from both groups were pooled. Genotyping of the tails verified that mice were homozygous δ^−/−. […] The onset of puberty was determined by vaginal opening, and pubertal mice tested on the day of first metestrus, identified by vaginal morphology and verification of first estrus the previous day. […] Individual stages of puberty were not distinguished, and pre-pubertal mice were used before any visible signs of pubertal development, assessed by development of the peri-vaginal area. […]
Radioimmunoassay for 3α,5α-THP. Hippocampal levels of 3α,5α-THP were assessed by radioimmunoassay (RIA) by C. […] Sample tube concentrations were calculated using the logit-log method^6, interpolation of the standards, and correction for recovery. […]

In assay [2] the test system is CA1 hippocampal pyramidal cells (α4βδ receptors). Nature of the assay: La3+-sensitive gaboxadol-induced current, whole cell patch clamp, hippocampal slice. It counts as cell-based, mouse. The note with it: 30 μM GBX, after puberty or THP Wd. (In general: Patch clamp records ionic current or voltage across a cell membrane.)
Assay [3] concerns CA1 hippocampal pyramidal cells. Nature of the assay: Input resistance and neuronal excitability (spiking), hippocampal slice. The note with it: puberty. It counts as cell-based, mouse. The protocol:
Tonic current was recorded as the difference current produced by 120 μM gabazine, which blocks all GABAA receptor, before and after 30 nM THP^24. Current was also recorded in response to 2 s 10 mV steps in the holding potential, and current-voltage curves generated to the steady-state current. Because fast-inactivating conductances would not be excluded in a voltage ramp, stable steady-state current responses were used instead to construct the current-voltage (IV) curves. Input resistance (Rm) was calculated from the current response to voltage steps from −60 to −40 mV using Ohm's Law. The reversal potential was determined by the […] of the IV curve (−90 to −10 mV). The gabazine-sensitive slope conductance was assessed as the slope of the linear portion of outward current plot recorded before and after THP after subtraction of the gabazine-generated current (in the presence of L-655,708 to block α5-GABAA receptors). Only data with a stable baseline and pipet access resistance <10 MΩ were included in the analysis.
Effects of THP on cell excitability were tested by monitoring spiking using cell attached patch recordings^31 in voltage clamp mode (−40 mV holding potential, 150 mM NaCl intrapipet solution) or assessing the current threshold to spiking and spike frequency in current clamp mode (0.01-0.3 nA steps, starting from −1 nA, 1 s duration). (More complete details are supplied in the Supplementary Methods.)

For assay [4], the system named is female C57BL6 mice. Kind of assay: Elevated plus maze (with or without restraint stress). The note with it: pre-administration before restraint stress; pubertal. Type of assay: in vivo, mouse. An excerpt:
Animal subjects. Prepubertal and pubertal female C57BL6 mice (3½-6 weeks old, +/+ and δ^−/−1) were housed in a reverse light:dark cycle (12:12). Both sets of mice were originally supplied by G. Homanics (Univ. of Pittsburgh), and were bred on site, with +/+ mice supplemented from Jackson Laboratories (Bar Harbor, Me.). Initially, age-matched+/+littermates of the δ^−/−were used as controls, but because they were indistinguishable from C57BL6, data from both groups were pooled. Genotyping of the tails verified that mice were homozygous δ^−/−. Some animals (+/+ or δ^−/−) were injected with finasteride (1,(5α)-androstene-4-aza-3-one-N-tert-butyl-17β-carboxaminde, Steraloids, 50 mg kg^, −1 intraperitoneally, 3 days) to block THP synthesis^2 or oil vehicle on a daily basis 1-1.5 h before dark onset, when THP levels increase, and tested 30 min. later. The onset of puberty was determined by vaginal opening, and pubertal mice tested on the day of first metestrus, identified by vaginal morphology and verification of first estrus the previous day. Mice with vaginal smears representative of diestrus were excluded from the study. Individual stages of puberty were not distinguished, and pre-pubertal mice were used before any visible signs of pubertal development, assessed by development of the peri-vaginal area. In some cases, pubertal mice were injected with replacement THP (3α-OH-5β-pregnan-20-one, 10 mg kg^−1, intraperitoneally in oil) for three days before testing. Procedures were in accordance with the SUNY Downstate Institutional Animal Care and Use Committee.
Restraint stress. In order to test the effect stress-induced release of THP^6,46,47 on anxiety, mice were restrained in a clear Plexiglas tube-type holder (Harvard Apparatus) for 45 min. and tested 20 min. later on the elevated plus maze (see Supplementary Methods). Open arm time was evaluated for 5 min. on the elevated plus maze. A decrease in open arm time reflects an increase in anxiety^18. In all cases, the results from each mouse tested after restraint was expressed relative to the averaged results from the sham controls, which were identical to the stressed animals (age, genotype, sex, drug-injected), except that they were not subjected to restraint stress.
Elevated plus maze. Testing rodent behavior on the elevated plus maze is an established animal model of anxiety^31. The plus maze consists of four 8×35 cm arms at 90° angles, elevated 57 cm above the floor. Two arms are enclosed by 33 cm walls, and two arms have no walls (“open arms”). […] Each animal was initially acclimated to the room for 30 min-1 h before being placed in the center of the maze, and exploratory activity recorded for 5 min. […]

The subject of assay [5] is α4β2δ GABAA receptors. Nature of the assay: Whole cell patch clamp of GABA-gated current, recombinant receptors in HEK-293 cells. It counts as cell-based, human or mouse α4, rat β2, human δ. The text has this:
(§1) Recombinant receptors: Transfection—Plasmids obtained from S. Vicini (rat α1, α5, β2, β3 and γ2), P. Whiting (human α4 and δ) and N. L. Harrison (mouse α4) were propagated in E coli DH5α and prepared using Qiagen Maxi- or Midi-prep kits. (Rat, mouse and human α1, β2, β3 and γ2 subunits are identical or nearly identical.) All receptors were transfected at a 1:1:1 ratio, except α1β2γ2 (1:1:5)^12, α4βδ (5:1:5)^13 and α4β2γ2 (5:1:1). HEK-293 cells were maintained in medium (DMEM:Ham's F-12 1:1) supplemented with 10% fetal calf serum at 37° C. in a humid 5% CO2 atmosphere. Cells were transfected using calcium phosphate or Polyfect (Qiagen) and co-transfected with enhanced green fluorescent protein (ratio of DNA to eGFP was 6:1 or 10:1 depending on the DNA concentration) for visualization. α4-containing GABAA receptors required 2-3 d for maximal levels of expression; all other receptors were recorded 1-2 d after transfection. Because mouse α4 and human α4-containing receptors yielded the same results, the currents were averaged together.
Whole cell patch clamp recording—GABA-gated currents were recorded at room temperature (20-22° C.) at a holding potential of −50 mV^14. The pipet solution contained (in mM): N-methyl-D-glucamine chloride 120, Cs4BAPTA 5 (Calbiochem), Mg-ATP 5, and an ATP regeneration system (20 mM Tris phosphocreatine and creatine kinase). Internal [Cl^−] or the holding potential were varied, using gluconate as the anion, to alter the direction of Cl^− flow, corrected for the junction potential. In some cases, current-voltage curves were constructed using the peak current response to agonist or agonist+THP across a range of holding potentials (−60 to +60) applied as 10 mV steps, or as a voltage ramp. […] Traces are presented as the average of 3 traces after subtraction of the leak current. […] This rapid application technique yields currents with a rapid rise phase. THP was also bath applied 30 s prior to tests of steroid effects. Currents were recorded using an Axopatch 1D amplifier (Axon Instruments) filtered at 2 kHz (four-pole Bessel filter) and detected at 10 kHz (pClamp 5.1). Analysis of peak current was accomplished with pClamp 9.2 and Origin software (Microcal).
Following the recording, the patch was blown out, and the open tip potential recorded using solutions with a 5% difference in NaCl osmolarity to verify the approximate solution exchange time. The time constant (τ) for desensitization was approximated using non-linear curve fitting routines with Levenburg-Marquardt algorithms (Origin software, Microcal). Goodness of fit was determined by minimizing the sum of the squares of deviations of the theoretical curve from the experimental points.
Recombinant receptors: Human embryonic kidney (HEK)-293 cells were transfected with α4 β2δ or other indicated subunit combinations (see Supplementary Methods) and co-transfected with enhanced green fluorescent protein for visualization. GABA-gated currents were recorded at room temperature (20-22° C.) at a holding potential of −50 mV^17 using a pipet solution containing 120 mM: N-methyl-D-glucamine chloride. Internal [Cl^−] or the holding potential were varied to alter the direction of Cl^− flow. […] Currents were recorded using an Axopatch 1D amplifier (Axon Instruments) filtered at 2 kHz (four-pole Bessel filter), detected at 10 kHz and analyzed with pClamp 9.2. Desensitization rate was determined using non-linear curve-fitting routines (Origin, Microcal; see next section).
Further Studies with Recombinant receptors: Transfection—Plasmids obtained from S. Vicini (rat α1, α5, β2, β3 and y2), P. Whiting (human α4 and 6) and N. L. Harrison (mouse α4) were propagated in E coli DH5α and prepared using Qiagen Maxi- or Midi-prep kits. (Rat, mouse and human α1, β2, β3 and γ2 subunits are identical or nearly identical.) All receptors were transfected at a 1:1:1 ratio, except a132γ2 (1:1:5)^12, α4β28 (5:1:5)^13 and α4β2γ2 (5:1:1). […]

In assay [6] the test system is α4β2γ2 receptors. The description is as above. It counts as cell-based, human or mouse α4, rat β2, rat γ2.
Description: as §1
Whole cell patch clamp recording—GABA-gated currents were recorded at room temperature (20-22° C.) at a holding potential of −50 mV^14. […] Currents were recorded using an Axopatch 1D amplifier (Axon Instruments) filtered at 2 kHz (four-pole Bessel filter) and detected at 10 kHz (pClamp 5.1). […]

The subject of assay [7] is CA1 hippocampal pyramidal cell dendrites. Kind of assay: Tight-seal cell-attached current-clamp recording during dendritic agonist application. The note with it: 5 μM; stratum radiatum; pubertal. It counts as cell-based, mouse. The protocol:
Tonic current was recorded as the difference current produced by the selective GABAA receptor antagonist gabazine (120 μM) before and after 30 nM THP^4,29, while gramicidin perforated-patch recordings^33 were accomplished using 140 mM KCl plus 25 μg ml^−1 gramicidin in the pipet solution, recorded when the access resistance dropped to <60 MΩ after tight seal formation. Estimates of the direction of Cl^− current were obtained by recording using tight-seal cell-attached techniques^31 (>1 GΩ seal) in current clamp mode. A downward deflection signified outward (i.e., hyperpolarizing) Cl^− current.
To determine whether THP inhibition of GABAergic currents at puberty was a physiological phenomenon, we initially verified that GABA-gated currents were outward in CA1 hippocampal pyramidal cell dendrites at the onset of puberty. […] The voltage change was recorded in current clamp mode from the soma using tight-seal cell attached techniques at a holding current of 0 pA^31.

Structures can show the parent of a compound that is named as a salt.

As for `CC(C)(C)NC(=O)[C@H]1CC[C@H]2[C@@H]3CC[C@H]4NC(=O)C=C[C@]4(C)[C@H]3CC[C@]12C` [5α-reductase blocker, 1,(5α)-androstene-4-aza-3-one-N-tert-butyl-17β-carboxaminde], in assay [1], the “decline in hippocampal THP levels” value is reported as 58±10%.

Take `[La+3]` [La^3+]: in assay [2] (300 μM La3+), the “reduction of GBX-generated current” value is reported as 50-70%.

`COc1ccc(-c2ccc(=N)n(CCCC(=O)O)n2)cc1` [gabazine, 6-imino-3-(4-methyoxyphenyl)-1 (6H)-pyridazinebutanoic acid hydrobromide]: the “effect on THP-induced increase of input resistance” value in assay [3] (120 μM gabazine pre-applied) is listed as “prevented”.

For `CC(=O)[C@H]1CC[C@H]2[C@@H]3CC[C@H]4C[C@@H](O)CC[C@]4(C)[C@H]3CC[C@]12C` (single isomer, unassigned; isomer 3) [3β-OH isomer, 3βOH-5α[β]-pregnan-20-one], in assay [4], the “effect on stress-induced increase in anxiety” value is given as “prevented the stress-induced increase in anxiety”. Further, the “inhibitory effect on outward GABA-gated current” value in assay [5] (isomer selectivity, FIG. 1e) is “selective for the active 3α-OH isomer, but not the inactive 3,3-OH isomer”.

As for `CCN(c1ccccc1)c1cc(=NC)n(C)c(C)n1.Cl` [ZD 7288], the “effect of Ih blockade on excitatory effect of THP” value in assay [3] (20 μM ZD 7288) is on record as “did not prevent the excitatory effect of THP”.

As to `NCCCC(=O)O` [GABA], the “GABA EC20” value in assay [6] amounted to 5000 nM. In assay [5], the “GABA EC20” value was […] and the “GABA EC75” value came out at […].

For `Oc1noc2c1CCNC2` [gaboxadol, 4,5,6,7-Tetrahydroisoxazolo[5,4-c]pyridin-3-ol], the “change in membrane potential on dendritic application” value in assay [7] was “downward shift of the membrane potential”. The “GBX-generated current vs pre-pubertal slices” value in assay [2] is on record as “significantly larger current”.

The values above are taken from patent US20090269795A1, “Mutant alpha4betadelta GABAA receptor and methods of treating anxiety or irritability” (priority 2007, published 2009).
